The source of these data is ChEMBL document CHEMBL3871298, “Virtual screening and biophysical studies lead to HSP90 inhibitors” (Bioorg Med Chem Lett, 2017).

Structures are written as SMILES. Activity calls are given as the source filed them. The rule behind the calls is not given here.

One data set deals with Saccharomyces cerevisiae. The experiment in a line: Binding affinity to yeast HSP90 N-terminal ATP binding domain by high-throughput virtual screening method.
Data set [1] has as its target T1, Heat shock protein HSP 90-alpha (Homo sapiens, UniProt P07900). The experiment in a line: Binding affinity to human HSP90alpha isoform 1 N-terminal ATP binding domain (9 to 236 residues) expressed in Escherichia coli BL21(DE3) assessed as melting temperature at 100 uM by SYPRO orange dye-based thermal shift assay.
Data set [2] is described as follows: Aqueous solubility of the compound at >100 uM. The data set is classed as physicochemical. The settings on record: buffer.
Data set [3] has as its target T1, Heat shock protein HSP 90-alpha. The experiment in a line: Binding affinity to 15N-labeled human HSP90alpha isoform 1 N-terminal ATP binding domain (9 to 236 residues) expressed in Escherichia coli BL21(DE3) assessed as reduction in protein signal intensity at 625 uM by 1H-15N HSQC NMR spectroscopy.
Data set [4] shares this target. Nature of the data set: Binding affinity to 15N-labeled human HSP90alpha isoform 1 N-terminal ATP binding domain (9 to 236 residues) expressed in Escherichia coli BL21(DE3) by 1H-15N HSQC NMR spectroscopy.

One may read the Tm as the temperature at the midpoint of the melting transition. Turning to `O=c1c2[nH]c3ccccc3c2ncn1CCc1ccc(O)cc1`, the outcome in the data set on Saccharomyces cerevisiae was Active. Moreover, the Tm in data set [1] is 30.8 °C. Moreover, the solubility entry in data set [2] is “Insoluble”.

Take `O=c1c2[nH]c3ccccc3c2ncn1CCc1ccc(O)c(O)c1`: the result in the data set with Saccharomyces cerevisiae was Active. The Tm in data set [1] amounted to 36.5 °C. Further, in data set [2], the solubility result is listed as “Soluble”.

As to `Cc1c(OCc2ccc(C(=O)O)o2)ccc2c3c(c(=O)oc12)CCC3`, the result (in the data set with Saccharomyces cerevisiae; in data set [3]) was Active. The Tm in data set [1] is 32.7 °C. Further, in data set [2], the solubility result was “Soluble”.

With `O=c1c2[nH]c3ccccc3c2ncn1CCc1c[nH]cn1`, in the data set with Saccharomyces cerevisiae, the outcome was Active. Also, the Tm in data set [1] amounted to 32.3 °C. Further, in data set [2], the solubility entry was “Soluble”.

With `Cc1cc(=O)oc2cc(OCc3ccc(C(=O)O)o3)ccc12`, the result with Saccharomyces cerevisiae was Active. Besides, the melting temperature (Tm) in data set [1] is 32.4 °C. For the same compound, the solubility entry in data set [2] is given as “Soluble”.

For orientation: Kd means the equilibrium constant for the complex coming apart. Read a low Kd as tighter binding. In the case of `CCOC(=O)c1ccc(-c2c(-c3cc(CC)c(O)cc3O)n[nH]c2C)o1`, in the data set on Saccharomyces cerevisiae, the outcome was Active. Also, in data set [1], the Tm is 49.8 °C. In data set [2], the solubility result was “Soluble”. Besides, in data set [4], binding was put at a Kd of 3 µM.

Regarding `O=C(O)C1Cc2c([nH]c3ccccc23)C(c2ccc(O)c(O)c2)N1` (configuration not stated), in the data set on Saccharomyces cerevisiae, the result was Active. Also, the midpoint of thermal melting (Tm) in data set [1] amounted to 31.3 °C. For the same compound, the solubility result in data set [2] is “Soluble”.

As to `CCCc1cc(C(=O)Cc2ccc3c(c2)OCO3)c(O)cc1O`, the result with Saccharomyces cerevisiae was Active. The Tm in data set [1] is 41.7 °C. The solubility result in data set [2] is “Soluble”. Also, the dissociation constant (Kd) in data set [4] was over 500 µM.

For the compound `COc1ccc2[nH]cc(C(=O)CN3C[C@@H]4C[C@@H](C3)c3cccc(=O)n3C4)c2c1`, in the data set with Saccharomyces cerevisiae, the outcome was Active. Besides, in data set [1], the Tm was 33.1 °C. For the same compound, the solubility result in data set [2] is “Soluble”.

For the compound `CCc1cc(-c2n[nH]c(C)c2-c2ccc3c(c2)OCCCO3)c(O)cc1OCC(=O)O`, the outcome in the data set with Saccharomyces cerevisiae was Active. Further, in data set [1], the Tm stood at 32.2 °C. Moreover, the solubility entry in data set [2] was “Soluble”.

Regarding `O=C(Cc1c(O)c2ccccc2[nH]c1=O)NCCO`, the outcome in the data set with Saccharomyces cerevisiae was Active. In addition, in data set [1], the Tm amounted to 32.8 °C. In addition, the solubility result in data set [2] is recorded as “Soluble”.

For `CCc1cc(C(=O)Cc2ccc(OC)cc2)c(O)cc1O`, in the data set with Saccharomyces cerevisiae, the result was Active. Further, the midpoint of thermal melting (Tm) in data set [1] worked out at 42.1 °C. In addition, the solubility entry in data set [2] is listed as “Soluble”. Further, the equilibrium dissociation constant (Kd) in data set [4] turned out to be 20 µM.

In the case of `CC(NCc1c(O)ccc2c(-c3ccccc3)cc(=O)oc12)C(=O)O` (configuration not stated), the outcome in the data set on Saccharomyces cerevisiae was Active. For the same compound, in data set [1], the midpoint of thermal melting (Tm) came out at 32.5 °C. Further, the solubility result in data set [2] is “Soluble”.

Consider `CCOC(=O)c1cc2n(c1N)-c1ccccc1C2=O`, for which the outcome in the data set with Saccharomyces cerevisiae was Active. The Tm in data set [1] was determined as 32.4 °C. The solubility entry in data set [2] was “Soluble”.

With `O=C(Cc1ccc2c(c1)OCCCO2)c1ccc(O)c(O)c1O`, the result in the data set on Saccharomyces cerevisiae was Active. In addition, the melting temperature (Tm) in data set [1] came out at 37.5 °C. Besides, the solubility entry in data set [2] is “Soluble”. Binding in data set [4] was put at a Kd of 370 µM.

As to `O=C(O)COc1cc(OCC(=O)O)c2c(-c3ccccc3)cc(=O)oc2c1`, in the data set with Saccharomyces cerevisiae, the result was Active. In addition, in data set [1], the Tm came out at 32.4 °C. In addition, the solubility result in data set [2] is “Soluble”.

Consider `Cc1oc2cc(OCC(=O)NCO)ccc2c(=O)c1-c1ccc2c(c1)OCCCO2`, for which the outcome in the data set with Saccharomyces cerevisiae was Active. For the same compound, in data set [1], the Tm was found to be 32.4 °C. Moreover, in data set [2], the solubility entry is “Soluble”.

As for `CC(=O)Nc1ccc(N[C@@H]2O[C@H](CO)[C@@H](O)[C@H]2O)cc1`, the result in the data set on Saccharomyces cerevisiae was Active. Further, in data set [1], the Tm is 31.8 °C. Also, the solubility result in data set [2] is “Soluble”.

In the case of `Nc1ncnc2c1ncn2[C@@H]1O[C@H](COP(=O)(O)OP(=O)(O)O)[C@@H](O)[C@H]1O`, in data set [1], the melting temperature (Tm) worked out at 36.7 °C.

Turning to `CCCc1cc(C(=O)Cc2ccc(C(=O)OCC)o2)c(O)cc1O`, the result with Saccharomyces cerevisiae was Active. Moreover, the midpoint of thermal melting (Tm) in data set [1] was 40.3 °C. Also, the solubility entry in data set [2] was “Soluble”. In addition, in data set [4], binding was characterised by a dissociation constant (Kd) of 2 µM.

As for `N=c1oc2cc(O)ccc2cc1C(=O)NCc1ccccc1`, in the data set with Saccharomyces cerevisiae, the result was Active. Moreover, the melting temperature (Tm) in data set [1] was determined as 35.5 °C. In data set [2], the solubility result is listed as “Soluble”.
